Data on three compounds can be found in patent US20230107216A1, “PANTETHEINE DERIVATIVES AND USES THEREOF” (Comet Therapeutics, Inc., priority 2018, published 2023).

Where two headings read alike, the source gives them in different places.

The test system of test [1] is Propionic Acidemia (PA) primary fibroblasts GM00371. The experiment in a line: Mitochondrial respiration, XFe96 Extracellular Flux Analyzer (OCR/ECAR), PA fibroblasts GM00371. The format is cell-based. Particulars: Homo sapiens, Fibroblast; for activation at 10 µM: assay condition D (1 mM glucose, 10% FBS).
The subject of test [2] is Venular Endothelial cells (HUVEC) (4H system). Nature of the test: BioMAP 4H system (IL-4 and histamine). Particulars: procedure of Example 826; for inhibition at 1 µM: read-out: % decrease in E-Selectin. The format is cell-based, human.
In test [3] the test system is Peripheral blood mononuclear cells co-cultured with B-cells (BT system). Particulars: procedure of Example 829.
Where [4] appears, read: Homo sapiens, HUVEC, 24 h, 1 uM.

As to `CCCCCCC(=O)SCCNC(=O)CCNC(=O)[C@H](O)C(C)(C)CO` [Compound 372, (2R)—N-(2-[[2-(heptanoylsulfanyl)ethyl]carbamoyl]ethyl)-2,4-dihydroxy-3,3-dimethylbutanamide], the activation at 50 µM in test [1] (assay condition C (10 mM glucose, 10% FBS), 50 μM, read-out: Increase in Maximal Respiratory Capacity AUC) was not below 10%. The inhibition at 1 µM in test [2] (setting [4]) was not below 10%. For the same compound, in test [3] (1 uM), the “% increase in sIL-2” value was not below 10%. Besides, the “% increase in sIL-17” value in test [3] (10 uM) is recorded as not below 20%.

For the compound `CC(=O)SCCNC(=O)CCNC(=O)[C@H](O)C(C)(C)COC(=O)[C@@H](N)Cc1ccc(O)c(O)c1` [Compound 498, (3R)-3-[(2-[[2-(acetylsulfanyl)ethyl]carbamoyl]ethyl)carbamoyl]-3-hydroxy-2,2-dimethylpropyl (2S)-2-amino-3-(3,4-dihydroxyphenyl)propanoate], in test [1] (read-out: Increase in Maximal Respiratory Capacity AUC), the activation at 10 µM is not below 10%. Further, in test [2] (setting [4]), the inhibition at 1 µM is not below 10%. Moreover, the inhibition at 10 µM in test [2] (Homo sapiens, HUVEC, 24 h, 10 uM, read-out: % decrease in VEGFRII) is not below 10%. Besides, the “% increase in sTNFα” value in test [3] (1 uM) is recorded as not below 10%. Moreover, the “% increase in sIL-2” value in test [3] (10 uM) was not below 20%.

`COC(=O)CCC(=O)SCCNC(=O)CCNC(=O)[C@H](OC(=O)CN)C(C)(C)CO` [Compound 1294, methyl 4-[(2-[3-[(2R)-2-[(2-aminoacetyl)oxy]-4-hydroxy-3,3-dimethylbutanamido]propanamido]ethyl)sulfanyl]-4-oxobutanoate]: the activation at 10 µM in test [1] (read-out: Increase in Spare Capacity AUC) is not below 30%. In addition, the “% decrease in MCP-1” value in test [2] (1 uM) is recorded as not below 10%. For the same compound, the “% increase in B-cell Proliferation” value in test [3] (1 uM) is listed as not below 10%. Further, the “% decrease in sIL-2” value in test [3] (10 uM) was not below 10%.
